Data reported in patent publication US20030225029A1 (priority 2002, published 2003).
Counter-ions that a name gives are not always drawn. Like-named read-outs stand apart in the source and are kept apart here.

Key:
HIV-1 [1] = conditions: cited from earlier work; for Impact of monotherapy: log decrease in HIV-1 RNA: for six months to one year
HIV-1 [2] = conditions: PBMC; cited from earlier work
HIV-1 [3] = conditions: T-cell lines; cited from earlier work
[4] = in vivo; cited from earlier work
[5] = in vivo; cited from earlier work; remark: listed apart in the source
HCV replicon RNA = assay: HCV replicon system in Huh7 cells, Q-RT-PCR of replicon RNA; type: cell-based
[6] = system: host DNA and RNA polymerases; assay: Reduction of cellular DNA (rDNA) or RNA (rRNA) levels in Huh7 replicon cells; type: cell-based
HCV = assay: Antiviral activity of gemcitabine after single treatment in an HCV-infected patient; type: in vivo, Human
From the text: Before the second dosage the baseline viral load was 6.49 log copies/mL. […] The HCV RNA measurement eight hours after the second dosage was 4.04 log copies/mL, indicating an approximate 2.5 log drop in eight hours.

cytidine deaminase = cytidine deaminase (Homo sapiens, UniProt P32320); conditions: intracellular cytidine deaminase; cited from earlier work
cytidine deaminase, sequence (P32320 whole entry, the tested form may be a part): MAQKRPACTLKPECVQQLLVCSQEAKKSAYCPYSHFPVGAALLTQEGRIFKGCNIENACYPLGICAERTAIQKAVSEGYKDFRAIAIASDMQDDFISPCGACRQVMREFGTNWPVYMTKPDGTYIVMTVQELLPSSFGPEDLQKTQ

[7] = system: locally advanced or metastatic pancreatic cancer; conditions: 1000 mg/m^2 by 30 min infusion once weekly; 63 patients per arm; cited from earlier work
pancreatic cancer = conditions: 63 patients previously treated with 5-FU; cited from earlier work
[8] = target: deoxycytidine kinase (dCK) (Cricetulus griseus, UniProt G3I4C0); conditions: phosphorylation to the monophosphate; partially purified enzyme from CHO cells; cited from earlier work
deoxycytidine kinase (dCK), sequence (G3I4C0 entry or part of it): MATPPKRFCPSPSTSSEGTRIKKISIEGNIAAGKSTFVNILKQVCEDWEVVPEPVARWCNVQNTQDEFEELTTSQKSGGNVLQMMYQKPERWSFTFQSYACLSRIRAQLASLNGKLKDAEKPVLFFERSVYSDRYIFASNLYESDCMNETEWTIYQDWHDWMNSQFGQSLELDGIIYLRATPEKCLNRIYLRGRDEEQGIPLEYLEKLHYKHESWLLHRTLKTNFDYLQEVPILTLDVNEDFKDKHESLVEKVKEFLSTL

[9] = human, in vivo; cited from earlier work
[10] = cited from earlier work
[11] = human, in vivo; cited from earlier work; remark: listed apart in the source
[12] = in vivo; cited from earlier work; remark: listed apart in the source
[13] = system: locally advanced or metastatic NSCLC; conditions: 28-day cycle, cited from earlier work; for objective response rate: first-line NSCLC
friend leukemia virus = conditions: under conditions that allowed normal weight gain; cited from earlier work
human DNA polymerase a = target: T1, human DNA polymerase a (Homo sapiens, UniProt P09884); conditions: dCTP over dFdCTP; cited from earlier work
T1 sequence (P09884 1-1462): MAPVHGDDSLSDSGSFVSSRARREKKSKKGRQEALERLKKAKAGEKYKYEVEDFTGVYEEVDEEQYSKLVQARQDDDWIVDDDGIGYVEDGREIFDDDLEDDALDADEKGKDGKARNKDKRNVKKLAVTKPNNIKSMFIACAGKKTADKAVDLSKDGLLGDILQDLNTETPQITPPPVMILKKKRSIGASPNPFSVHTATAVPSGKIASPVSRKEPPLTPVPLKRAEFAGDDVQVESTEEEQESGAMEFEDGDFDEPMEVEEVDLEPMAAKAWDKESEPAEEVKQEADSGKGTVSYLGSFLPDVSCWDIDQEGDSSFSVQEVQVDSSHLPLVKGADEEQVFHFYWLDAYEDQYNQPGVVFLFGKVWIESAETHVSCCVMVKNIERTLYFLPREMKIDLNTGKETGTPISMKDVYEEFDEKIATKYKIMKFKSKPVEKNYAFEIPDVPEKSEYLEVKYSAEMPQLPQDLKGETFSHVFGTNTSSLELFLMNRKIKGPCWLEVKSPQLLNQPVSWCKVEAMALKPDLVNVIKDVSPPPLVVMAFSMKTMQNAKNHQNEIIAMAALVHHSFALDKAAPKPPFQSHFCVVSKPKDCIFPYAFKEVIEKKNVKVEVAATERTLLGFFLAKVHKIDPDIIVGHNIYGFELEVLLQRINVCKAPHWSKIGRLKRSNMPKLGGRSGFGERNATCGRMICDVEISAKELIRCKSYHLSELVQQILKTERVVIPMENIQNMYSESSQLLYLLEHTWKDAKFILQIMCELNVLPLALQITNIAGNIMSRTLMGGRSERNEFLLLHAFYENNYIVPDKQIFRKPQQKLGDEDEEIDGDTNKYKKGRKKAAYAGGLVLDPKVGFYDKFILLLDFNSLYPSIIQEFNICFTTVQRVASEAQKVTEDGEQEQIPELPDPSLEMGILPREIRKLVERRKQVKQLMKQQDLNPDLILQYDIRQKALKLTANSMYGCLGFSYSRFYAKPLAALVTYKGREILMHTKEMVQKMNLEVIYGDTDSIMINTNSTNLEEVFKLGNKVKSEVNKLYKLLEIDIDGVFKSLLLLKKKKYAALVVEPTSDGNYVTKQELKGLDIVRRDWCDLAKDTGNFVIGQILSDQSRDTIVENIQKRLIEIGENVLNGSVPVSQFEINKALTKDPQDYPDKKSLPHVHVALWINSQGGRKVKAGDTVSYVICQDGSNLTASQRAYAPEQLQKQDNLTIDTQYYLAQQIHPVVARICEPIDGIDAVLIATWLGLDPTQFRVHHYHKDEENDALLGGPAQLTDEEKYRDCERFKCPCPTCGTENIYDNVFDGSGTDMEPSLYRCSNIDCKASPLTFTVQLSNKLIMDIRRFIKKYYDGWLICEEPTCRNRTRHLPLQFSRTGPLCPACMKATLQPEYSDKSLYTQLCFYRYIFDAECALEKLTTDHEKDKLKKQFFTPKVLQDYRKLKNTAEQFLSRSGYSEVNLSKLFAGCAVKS

human DNA polymerase ε = human DNA polymerase ε (Homo sapiens, UniProt Q07864); conditions: dCTP over dFdCTP; cited from earlier work
human DNA polymerase ε, sequence (Q07864 whole entry): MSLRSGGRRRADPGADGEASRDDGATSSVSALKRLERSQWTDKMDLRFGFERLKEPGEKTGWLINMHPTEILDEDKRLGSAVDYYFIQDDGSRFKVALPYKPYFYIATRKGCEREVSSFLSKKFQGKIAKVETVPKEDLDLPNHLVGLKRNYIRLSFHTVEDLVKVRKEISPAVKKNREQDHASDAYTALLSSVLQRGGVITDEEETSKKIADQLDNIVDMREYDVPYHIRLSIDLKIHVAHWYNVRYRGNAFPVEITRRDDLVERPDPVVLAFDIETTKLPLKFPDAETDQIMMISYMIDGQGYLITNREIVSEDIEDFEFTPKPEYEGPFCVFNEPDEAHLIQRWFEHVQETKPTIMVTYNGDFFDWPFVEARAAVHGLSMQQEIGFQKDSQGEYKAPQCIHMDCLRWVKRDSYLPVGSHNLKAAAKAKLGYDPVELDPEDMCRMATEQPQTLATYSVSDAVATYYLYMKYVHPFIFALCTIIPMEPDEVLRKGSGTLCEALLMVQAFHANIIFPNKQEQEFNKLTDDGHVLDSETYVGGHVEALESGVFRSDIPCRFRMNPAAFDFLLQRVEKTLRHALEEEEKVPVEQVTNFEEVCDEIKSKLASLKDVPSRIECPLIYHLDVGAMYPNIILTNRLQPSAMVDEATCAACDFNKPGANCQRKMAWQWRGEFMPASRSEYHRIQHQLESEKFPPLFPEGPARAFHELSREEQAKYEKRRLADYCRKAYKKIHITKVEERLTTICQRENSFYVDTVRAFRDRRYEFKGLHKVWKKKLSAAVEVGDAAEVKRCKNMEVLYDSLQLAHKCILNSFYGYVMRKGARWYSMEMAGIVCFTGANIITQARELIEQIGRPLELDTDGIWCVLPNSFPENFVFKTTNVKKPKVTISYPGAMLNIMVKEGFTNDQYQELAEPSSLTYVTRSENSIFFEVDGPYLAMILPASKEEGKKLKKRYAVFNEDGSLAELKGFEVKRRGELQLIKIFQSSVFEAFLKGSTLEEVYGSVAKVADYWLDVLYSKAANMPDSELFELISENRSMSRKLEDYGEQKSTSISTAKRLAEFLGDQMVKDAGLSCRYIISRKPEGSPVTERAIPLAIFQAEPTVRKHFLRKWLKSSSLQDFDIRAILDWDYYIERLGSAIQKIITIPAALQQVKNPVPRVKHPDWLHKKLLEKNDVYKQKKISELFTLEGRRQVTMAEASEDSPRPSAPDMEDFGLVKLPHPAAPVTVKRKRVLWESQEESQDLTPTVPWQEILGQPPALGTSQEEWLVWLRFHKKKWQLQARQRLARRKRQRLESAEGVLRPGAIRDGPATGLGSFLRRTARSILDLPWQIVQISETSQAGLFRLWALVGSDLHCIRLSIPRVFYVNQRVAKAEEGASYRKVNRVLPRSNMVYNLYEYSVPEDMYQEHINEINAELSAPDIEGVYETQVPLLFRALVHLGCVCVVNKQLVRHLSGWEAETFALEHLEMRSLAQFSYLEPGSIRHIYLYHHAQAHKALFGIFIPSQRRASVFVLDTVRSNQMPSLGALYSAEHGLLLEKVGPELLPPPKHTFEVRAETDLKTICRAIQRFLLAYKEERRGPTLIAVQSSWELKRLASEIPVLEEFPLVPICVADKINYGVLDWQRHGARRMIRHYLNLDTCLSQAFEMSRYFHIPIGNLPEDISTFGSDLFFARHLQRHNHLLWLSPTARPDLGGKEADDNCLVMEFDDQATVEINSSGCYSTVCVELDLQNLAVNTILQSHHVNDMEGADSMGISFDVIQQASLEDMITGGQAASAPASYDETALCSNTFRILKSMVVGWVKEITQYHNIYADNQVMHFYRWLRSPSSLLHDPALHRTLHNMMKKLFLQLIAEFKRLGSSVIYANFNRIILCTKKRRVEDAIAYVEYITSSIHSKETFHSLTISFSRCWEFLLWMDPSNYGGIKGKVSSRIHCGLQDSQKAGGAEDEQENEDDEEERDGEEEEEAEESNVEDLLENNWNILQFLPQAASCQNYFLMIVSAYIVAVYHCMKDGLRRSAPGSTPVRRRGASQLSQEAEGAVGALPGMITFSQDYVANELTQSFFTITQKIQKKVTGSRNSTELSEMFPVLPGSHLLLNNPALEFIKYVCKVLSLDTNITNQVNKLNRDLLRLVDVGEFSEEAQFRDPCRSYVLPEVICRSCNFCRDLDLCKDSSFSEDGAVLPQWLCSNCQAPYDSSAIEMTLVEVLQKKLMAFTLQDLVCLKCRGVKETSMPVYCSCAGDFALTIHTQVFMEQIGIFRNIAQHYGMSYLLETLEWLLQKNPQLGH

[14] = system: stage IIIB or Stage 1V NSCLC; conditions: 21-day cycle, cited from earlier work

Molecule: O=c1[nH]cnc2c1ncn2[C@H]1CC[C@@H](CO)O1 [Didanosine, 2′,3′-dideoxyinosine]
- Impact of monotherapy: log decrease in HIV-1 RNA (HIV-1 [1]): ˜0.8 log decrease in HIV-1 RNA for six months to one year
- EC50 (HIV-1 [2]): 10 nM
- EC50 (HIV-1 [3]): 2 to 20 nM
- Adverse events [4]: Diarrhea, nausea, vomiting, peripheral neuropathy, pancreatitis
- Parent drug plasma-serum half-life [5]: 0.6 to 2.7 h

Molecule: Nc1nc(=O)n([C@@H]2CS[C@H](CO)O2)cc1F [Emtricitabine]
- Impact of monotherapy: log reduction (HIV-1 [1]; at 14 days): ˜2 log reduction at 14 days
- EC50 (HIV-1 [2]): 0.7 to 10 nM
- EC50 (HIV-1 [3]): 9 to 500 nM
- Adverse events [4]: Anemia
- Parent drug plasma-serum half-life [5]: 1.0 to 4.0 h

Molecule: Nc1ccn([C@@H]2O[C@H](CO)[C@@H](O)C2(F)F)c(=O)n1 [Gemcitabine, β-D-2′,2′-difluorocytidine]
- reduction of the replicon HCV RNA (FIG. 2) (HCV replicon RNA; 4-days incubation): dose-dependant reduction
- EC90 (HCV replicon RNA; Hepatitis C virus, Huh-7, 96 h, Huh7 cells, 4-days incubation, read-out: EC90 (1-log reduction of replicon RNA) (converted)): ~70 nM
- EC50 (HCV replicon RNA; Hepatitis C virus, Huh-7, Huh7 cells harboring self-replicating HCV RNA, read-out: EC50, reduction of HCV RNA levels): 40 nM
- IC50 ([6]; Homo sapiens, Huh-7): 240 nM
- baseline viral load (HCV; before the second dosage, day after first 1200 mg dose): 6.49 log copies/mL
- HCV RNA measurement (HCV; eight hours after the second dosage (approximately 700 mg)): 4.04 log copies/mL
- drop in HCV RNA (HCV; in eight hours after the second dosage): ~2.5 log
- Km (cytidine deaminase): 96 µM
- clinical benefit response, survival, and time to disease progression compared to 5-FU [7]: statistically significant increases
- clinical benefit response rate (pancreatic cancer): 27%
- median survival (pancreatic cancer): 3.9 months
- Km [8]: 3.6 µM
- plasma protein binding [9]: negligible
- half-life ([10]; after short infusion (<70 min)): 0.533 to 1.53 h
- Volume of distribution ([10]; human, in vivo): 370 L/m^2
- ADVERSE EFFECTS [11]: Thrombocytopenia,
- dose-limiting toxicity [11]: myelosuppression

Molecule: NC(=O)c1ncn([C@@H]2O[C@H](CO)[C@@H](O)[C@H]2O)n1 [Ribavirin]
- teratogenicity [12]: teratogenic

Molecule: Cc1cn([C@H]2C=C[C@@H](CO)O2)c(=O)[nH]c1=O [Stavudine, 3′-deoxy-2′,3′-didehycrothymidine]
- Impact of monotherapy: log decrease in HIV-1 RNA (HIV-1 [1]): ˜0.8 log decrease in HIV-1 RNA for six months to one year
- EC50 (HIV-1 [2]): 9 nM
- EC50 (HIV-1 [3]): 1 to 25000 nM
- Adverse events [4]: Peripheral neuropathy
- Parent drug plasma-serum half-life [5]: 1.0 to 1.6 h

Molecule: Nc1ccn([C@H]2CC[C@@H](CO)O2)c(=O)n1 [Zalcitabine, 2′,3′-dideoxycytidine]
- Impact of monotherapy (comparison in words) (HIV-1 [1]; in vivo): Less effective than either ddI or AZT
- EC50 (HIV-1 [2]): 2 to 160 nM
- EC50 (HIV-1 [3]): 30 to 50 nM
- Adverse events [4]: Peripheral neuropathy, mouth ulcers
- Parent drug plasma-serum half-life [5]: 1.0 to 3.0 h

Molecule: Cc1cn([C@H]2CC(N=[N+]=[N-])[C@@H](CO)O2)c(=O)[nH]c1=O (stereo partly shown) [Zidovudine, 1-(3′Azido-2′-deoxyribosyl)thymine]
- Impact of monotherapy: log decrease in HIV-1 RNA (HIV-1 [1]): One log decrease in HIV-1 RNA for six months to one year 1
- EC50 (HIV-1 [2]): 4 to 25 nM
- EC50 (HIV-1 [3]): 5 to 6 nM
- Adverse events [4]: Nausea, vomiting, headache, neutropenia, anemia, insomnia
- Parent drug plasma-serum half-life [5]: 0.8 to 1.9 h

Molecule: N.N.[Cl][Pt][Cl] [cisplatin]
- objective response rate [13]: 10%

Molecule: Nc1ccn([C@@H]2O[C@H](CO)[C@@H](O)C2(F)F)c(=O)n1 [cytidine analog]
- inhibition of polyerythroblastosis (friend leukemia virus): 90%
- inhibition of spleen enlargement (friend leukemia virus): 90%

Molecule: Nc1ccn([C@@H]2O[C@H](COP(=O)(O)OP(=O)(O)OP(=O)(O)O)[C@@H](O)C2(F)F)c(=O)n1 [dFdCTP]
- preference of the polymerase for the normal nucleotide (dCTP) (human DNA polymerase a): 20 fold
- preference of the polymerase for the normal nucleotide (dCTP) (human DNA polymerase ε): 20 fold

Molecule: O=c1ccn([C@@H]2O[C@H](CO)[C@@H](O)C2(F)F)c(=O)[nH]1 [dFdU, 2′,2′-difluorodeoxyuridine]
- dCT HCV (HCV replicon RNA; 7.0 μM): 6.39
- ddct (HCV replicon RNA; 7.0 μM, HCV dCt minus rRNA dCt): 4.42
- dCt rRNA ([6]; 7.0 μM): 1.96

Molecule: Nc1ccn([C@H]2C[C@H](O)[C@@H](CO)O2)c(=O)n1 [deoxycytidine]
- Km [8]: 1.6 µM

Molecule: Nc1ccn([C@@H]2O[C@H](CO)[C@@H](O)C2(F)F)c(=O)n1 [gemcitabine HCl]
- tolerance (HCV; 1200 mg in 1000 minutes associated with oxaliplatine): acceptable

Molecule: Abacavir
- Impact of monotherapy: log reduction in HIV-1 RNA (HIV-1 [1]; at four weeks): Approximate 1.8 log reduction in HIV-1 RNA at four weeks
- EC50 (HIV-1 [3]): 4100 nM
- Adverse events [4]: Nausea, vomiting, headache, (hypersensi- tivity reaction)
- Parent drug plasma-serum half-life [5]: 1.0 to 2.0 h

Molecule: gemcitabine plus cisplatin
- objective response rate [13]: 26%
- Median survival time and median time to disease progression compared to cisplatin alone [13]: significantly greater
- median time to disease progression and objective response rates compared to etoposide plus cisplatin [14]: significantly greater
- survival, difference between the two treatment arms ([14]; vs etoposide plus cisplatin): no significant difference
